Laboratory results published in ChEMBL document CHEMBL2331098, “Unprecedented polyketides from a marine sponge-associated Stachylidium sp” (J Nat Prod, 2013).
Calls of active or inactive are those of the source. The calls are words filed in the database; no cut-off is given here.

Key:
[1] = test system: Mycobacterium tuberculosis; experiment: Antimicrobial activity against antibiotic-resistant Mycobacterium tuberculosis R46 at 50 ug/ml disc level; type: functional, organism-based
[2] = test system: Mycobacterium tuberculosis; experiment: Antimicrobial activity against antibiotic-resistant Mycobacterium tuberculosis MTB72 at 50 ug/ml disc level; type: functional, organism-based

COCc1c(C(C)O)cc(O)c(C)c1OC (configuration not stated)
Activity [1]: inactive
Activity [2]: inactive
